# Reference: US9862711B2, “Pyrazine derivatives as phosphatidylinositol 3-kinase inhibitors” (NOVARTIS AG, priority 2014, dated 2018)
# Target: PI 3-kinase gamma (Homo sapiens (Human), UniProt P48736)
# Experiment: Cellular U937 AKT assay (Assay K)
# Type: cell-based
# Details: AKT phosphorylation in U937 monocyte cells stimulated with 10 ng/ml MIP1α; read-out: Assay K PI3Kγ IC50
# Protocol: Cellular U937 AKT Assay for PI 3-Kinase Gamma (K)
# The U937 monocyte cell line is maintained in a basal medium of RPMI 1640 supplemented with 10% heat inactivated FCS, 100 U/ml Penicillin, 100 ug/ml streptomycin and 2 mM L-glutamine (Invitrogen). U937 suspension culture is maintained by seeding cells at a density of 0.125×10^6 cells per ml in fresh medium every three or four days. Cells are incubated at 37° C., 5% CO2. Three or four days prior to assay, cells are seeded at a density of 0.25×10^6 cells per ml in a total volume of 40 ml in a T162 culture flask.
# Before beginning the cell manipulations described below, the MSD (Meso Scale Discovery) assay plate is blocked by addition of 150 ul/well blocking buffer supplied and incubated with shaking for a minimum of one hour at room temperature. All steps of the assay must be performed quickly, with accurately timed incubation periods and observing temperature controls where indicated.
# Cells seeded at 0.25×10^6/ml 3 or 4 days prior to the assay are aspirated, transferred to a 50 ml falcon tube, counted and centrifuged for eight minutes at 300 g at room temperature. Supernatant is aspirated, the cell pellet resuspended and washed once in HBSS (Hank's Balanced Salt Solution) by centrifugation for eight minutes at 300 g at room temperature. The cell pellet is resuspended in HBSS to a concentration of 4×10^6 per ml, and 100 μL of cell suspension added to each well of a flat-bottomed 96-well tissue culture plate. Assay plates are incubated for 1.5 hours at 37° C., 5% CO2 to allow background AKT phosphorylation to reduce before the compound stimulation step.
# A 5 mM stock concentration of compound is prepared in 100% DMSO; from this a 1 in 125 dilution is made in HBSS giving a top compound concentration of 40 μM, 0.8% DMSO. Compound titrations are prepared in a fresh flat-bottomed, 96-well plate, by 10-fold serial dilution of 40 uM into HBSS 0.8% DMSO; pipette tips are replaced after each dilution is made. Compound concentrations at this stage are 4-times the final concentration required in the assay plate. Cells are stimulated with compound or HBSS 0.8% DMSO by direct transfer of 50 ul/well from the compound dilution plate. The assay plate containing compound-treated cells is then incubated for 30 minutes at 37° C. A standard plate layout is used for all experiments.
# Compound-treated cells, in addition to positive control wells (“max MIP1α”), are stimulated with 50 μL per well of 40 ng/ml MIP1α (R&D Systems catalogue number 270-LD, lyophilized stock reconstituted to 50 μg/ml with PBS 0.1% BSA). Negative control wells (“min HBSS”), are stimulated with 50 μl/well of HBSS in the absence of MIP1α. Final compound concentrations are now diluted 4-fold giving a top concentration of 10 μM; where added, the final concentration of MIP1α is 10 ng/ml. Cells are incubated with MIP1α for 3 minutes, at 37° C., 5% CO2. After the three minute stimulation period, the assay plate is kept ice cold at all times. Assay plates are centrifuged for 2 minutes at 300 g, 4° C. and supernatant is removed by gently inverting, and then blotting the plate on tissue. Cells are then washed by gentle addition of 150 μL/well of ice cold HBSS and centrifugation at 300 g, for 5 minutes at 4° C. Supernatant is aspirated and the plate blotted as described above. The plate is placed on ice and cells are immediately treated with 35 μL per well of ice cold lysis buffer, prepared according to the kit instructions (per assay plate, to 5 ml of Tris lysis buffer add 100 μl of 50× protease inhibitor solution and 50 μl of each 100× phosphatase inhibitor solutions I and II). Plates are incubated on ice for 20 minutes before centrifugation at 841 g for 5 minutes, 4° C.
# Block buffer is aspirated from the MSD plate, and the plate washed four times with 300 μl/well Tris wash buffer. 25 μL of cell lysate is then transferred from the assay plate to the washed MSD plate which is sealed and incubated at room temperature for one hour with shaking. […]
# Chain of PI 3-kinase gamma (P48736 whole entry): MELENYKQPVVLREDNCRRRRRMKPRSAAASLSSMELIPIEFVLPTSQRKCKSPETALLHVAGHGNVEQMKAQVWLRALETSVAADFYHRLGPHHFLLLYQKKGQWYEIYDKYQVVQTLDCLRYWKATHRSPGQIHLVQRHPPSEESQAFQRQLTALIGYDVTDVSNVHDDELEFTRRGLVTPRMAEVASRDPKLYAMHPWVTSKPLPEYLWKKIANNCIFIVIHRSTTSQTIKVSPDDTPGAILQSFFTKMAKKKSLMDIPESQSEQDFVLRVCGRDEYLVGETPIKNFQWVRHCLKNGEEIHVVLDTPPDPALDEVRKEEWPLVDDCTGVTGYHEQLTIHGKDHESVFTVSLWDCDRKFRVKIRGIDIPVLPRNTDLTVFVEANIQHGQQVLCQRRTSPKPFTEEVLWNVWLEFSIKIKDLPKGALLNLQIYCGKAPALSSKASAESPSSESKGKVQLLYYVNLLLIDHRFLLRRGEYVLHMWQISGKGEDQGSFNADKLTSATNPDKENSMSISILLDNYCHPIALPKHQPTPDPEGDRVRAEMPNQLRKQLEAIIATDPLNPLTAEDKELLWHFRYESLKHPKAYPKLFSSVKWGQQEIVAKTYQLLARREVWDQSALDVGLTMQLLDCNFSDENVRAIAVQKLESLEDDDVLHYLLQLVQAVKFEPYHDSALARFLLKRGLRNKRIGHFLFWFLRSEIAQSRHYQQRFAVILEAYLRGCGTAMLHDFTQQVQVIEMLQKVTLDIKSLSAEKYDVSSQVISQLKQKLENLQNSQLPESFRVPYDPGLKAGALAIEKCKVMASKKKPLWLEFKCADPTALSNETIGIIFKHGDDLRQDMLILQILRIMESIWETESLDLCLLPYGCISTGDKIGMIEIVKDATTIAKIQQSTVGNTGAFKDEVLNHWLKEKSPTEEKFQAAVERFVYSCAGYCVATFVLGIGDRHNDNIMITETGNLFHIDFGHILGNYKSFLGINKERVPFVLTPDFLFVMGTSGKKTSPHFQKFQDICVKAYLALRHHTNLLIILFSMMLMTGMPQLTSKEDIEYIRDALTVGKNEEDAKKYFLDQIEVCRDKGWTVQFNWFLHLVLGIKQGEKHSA
row,IC50 [nM],SMILES
1,80,"Cc1ccc(S(=O)(=O)NCCC(C)(C)O)cc1-c1cncc(-c2cn(C)nc2C)n1 [Example 3, 3-[6-(1,3-Dimethyl-1H-pyrazol-4-yl)-pyrazin-2-yl]-N-(3-hydroxy-3-methyl-butyl)-4-methyl-benzenesulfonamide]"
2,38,"Cc1ncc(-c2cncc(-c3cc(S(=O)(=O)N[C@H]4CC[C@H](O)CC4)ccc3C)n2)s1 [Example 5, Trans N-(4-Hydroxycyclohexyl)-4-methyl-3-(6-(2-methylthiazol-5-yl)pyrazin-2-yl)benzenesulfonamide]"
3,54,"Cc1ccc(S(=O)(=O)NCC2(C)COC2)cc1-c1cncc(-c2cn(C)nc2C)n1 [Example 4, Trans 3-[6-(1,3-Dimethyl-1H-pyrazol-4-yl)-pyrazin-2-yl]-4-methyl-N-(3-methyl-oxetan-3-ylmethyl)-benzenesulfonamide]"
4,66,"Cc1ccc(S(=O)(=O)NCC(C)(C)O)cc1-c1cncc(-c2cn(C)nc2C)n1 [Example 2, 3-[6-(1,3-Dimethyl-1H-pyrazol-4-yl)-pyrazin-2-yl]-N-(2-hydroxy-2-methyl-propyl)-4-methyl-benzenesulfonamide]"
5,213,"Cc1ccc(S(=O)(=O)N[C@H]2CC[C@H](O)CC2)cc1-c1cncc(-c2cccnc2)n1 [Example 11, Trans N-(4-Hydroxy-cyclohexyl)-4-methyl-3-(6-pyridin-3-yl-pyrazin-2-yl)-benzenesulfonamide]"
6,121,"Cc1ccc(S(=O)(=O)NCCC(C)(C)O)cc1-c1cncc(-c2cn(CCN3CCOCC3)nc2C)n1 [Example 10, N-(3-Hydroxy-3-methyl-butyl)-4-methyl-3-{6-[3-methyl-1-(2-morpholin-4-yl-ethyl)-1H-pyrazol-4-yl]-pyrazin-2-yl}-benzenesulfonamide]"
7,599,"Cc1ccc(S(=O)(=O)NCCC(C)(C)O)cc1-c1cncc(-c2cnn(CCN3CCOCC3)c2)n1 [Example 9, N-(3-Hydroxy-3-methyl-butyl)-4-methyl-3-{6-[1-(2-morpholin-4-yl-ethyl)-1H-pyrazol-4-yl]-pyrazin-2-yl}-benzenesulfonamide]"
8,329,"Cc1ncc(-c2cncc(-c3cc(S(=O)(=O)NCCCO)ccc3C)n2)s1 [Example 1, N-(3-Hydroxy-propyl)-4-methyl-3-[6-(2-methyl-thiazol-5-yl)-pyrazin-2-yl]-benzenesulfonamide]"
9,96,"Cc1ccc(S(=O)(=O)NCC(C)(C)CO)cc1-c1cncc(-c2cn(C)nc2C)n1 [Example 8, 3-[6-(1,3-Dimethyl-1H-pyrazol-4-yl)-pyrazin-2-yl]-N-(3-hydroxy-2,2-dimethyl-propyl)-4-methyl-benzenesulfonamide]"
